Activity calls are given as the source filed them.
Legend:
Cytochrome P450 3A4 = Cytochrome P450 3A4 (Homo sapiens, UniProt P08684);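 note: CYP3A4 tested as one member of a cytochrome P450 panel screen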
Estrogen receptor beta = Estrogen receptor beta (Homo sapiens, UniProt Q92731);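 note: recombinant ER-beta bound to coactivator SRC1 peptide in presence of estradiol agonist; inhibitors block coactivator peptide binding and lower the FRET signal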
[1] = inhibitors of intracellular T. cruzi replication, confirmation, NIH3T3 host cells, beta-gal luminescence (AID 2044); format: functional, cell-based;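 note: intracellular parasites grown in NIH/3T3 mouse fibroblasts as host cells; luminescent beta-galactosidase reporter signal from transgenic T. cruzi replicating inside host cells; inhibitors lower the luminescence signal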
[2] = cytotoxicity toward NIH3T3 fibroblasts, dose response, counter-screen, cell-based, ATP luminescence, mouse fibroblasts (AID 2010); format: functional;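 note: cells exposed to compound for about 90 hours before reading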
[3] = target: DNA dC->dU-editing enzyme APOBEC-3G (Homo sapiens, UniProt Q9HC16); test: Dose Response confirmation of small molecule APOBEC3G DNA Deaminase Inhibitors via a fluorescence-based single-stranded DNA deaminase assay. [Related pubchem assays (depositor defined):AID493012, AID493028]; format: functional
Fatty acid synthase [4] = target: T1, Fatty acid synthase (Homo sapiens, UniProt P49327); test: FAS thioesterase domain inhibitors, dose response, biochemical, endpoint fluorescence intensity, uHTS hits (AID 624327); format: functional;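 note: fluorescence from hydrolysis of an O-methyl fluorescein acyl ester substrate by the enzyme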
Fatty acid synthase [5] = target: T1, Fatty acid synthase; test: FAS thioesterase domain inhibitors, dose response, biochemical, kinetic fluorescence intensity (AID 624326); format: functional;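 note: rate of fluorescence rise from hydrolysis of a fluorogenic O-methyl fluorescein ester substrate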
[6] = target: Eukaryotic translation initiation factor 4E (Mus musculus, UniProt P63073); test: eIF4E–eIF4G protein interaction inhibitors, dose response, biochemical, TR-FRET (AID 855); format: functional;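 note: potency for disrupting eIF4E binding to eIF4GI seen as loss of FRET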
cells = format: functional
H9c2 = test: cells; format: functional, cell-based; details: Rattus norvegicus, H9c2, Myocardium
[7] = growth suppression of PTEN-null colon cells, dose response, cell-based, HCT116 PTEN knockout (AID 1047); format: functional;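 note: HCT116 colon tumor cells with PTEN knocked out; cells exposed to compound for 60 hours before readout; potency for loss of cell viability measured by luminescence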
[8] = growth suppression of beta-catenin-knockout colon cells, dose response, cell-based, HCT116, human colon tumor (AID 1045); format: functional;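 note: HCT116 colon tumor cells with beta catenin knocked out; cells exposed to compound for 60 hours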
[9] = target: T2, RNA-binding protein pos-1 (Caenorhabditis elegans, UniProt G5EF15); test: inhibitors of POS-1/mex-3 RNA binding, dose response, biochemical, fluorescence polarization (AID 1964);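 note: purified POS-1 fused to maltose binding protein made in E. coli; potency of compounds blocking POS-1 binding to fluorescent RNA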
T2 sequence (G5EF15 whole entry): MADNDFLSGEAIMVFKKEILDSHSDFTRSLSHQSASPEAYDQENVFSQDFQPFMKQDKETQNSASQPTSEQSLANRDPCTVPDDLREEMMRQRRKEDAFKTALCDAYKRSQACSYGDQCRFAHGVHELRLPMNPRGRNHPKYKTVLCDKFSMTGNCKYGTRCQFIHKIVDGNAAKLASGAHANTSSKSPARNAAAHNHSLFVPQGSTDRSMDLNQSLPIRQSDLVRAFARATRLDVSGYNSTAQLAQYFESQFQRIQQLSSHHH

[10] = target: T3, Zinc finger protein mex-5 (Caenorhabditis elegans, UniProt Q9XUB2); test: MEX-5/TCR-2 RNA interaction inhibitors, dose response, biochemical, C. elegans, fluorescence polarization (AID 1960)
T3 sequence (Q9XUB2 whole entry): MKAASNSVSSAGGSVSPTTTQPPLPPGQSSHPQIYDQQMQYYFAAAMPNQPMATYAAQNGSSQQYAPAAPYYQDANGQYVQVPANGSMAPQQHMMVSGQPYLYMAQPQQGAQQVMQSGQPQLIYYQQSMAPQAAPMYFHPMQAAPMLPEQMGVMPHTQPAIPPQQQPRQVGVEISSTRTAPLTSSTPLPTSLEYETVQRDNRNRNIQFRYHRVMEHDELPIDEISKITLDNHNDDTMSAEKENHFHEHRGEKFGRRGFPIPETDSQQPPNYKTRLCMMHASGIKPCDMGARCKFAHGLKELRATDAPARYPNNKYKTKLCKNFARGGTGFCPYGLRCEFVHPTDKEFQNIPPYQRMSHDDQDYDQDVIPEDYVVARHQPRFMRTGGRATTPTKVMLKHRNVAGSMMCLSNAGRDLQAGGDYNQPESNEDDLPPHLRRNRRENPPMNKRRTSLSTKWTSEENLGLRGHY

[11] = target: Luciferin 4-monooxygenase (Photinus pyralis, UniProt P08659); test: firefly luciferase enzyme inhibitors, dose response, biochemical, luminescence (AID 1891)
[12] = Luminescence Cell-Based Dose Confirmation HTS to Identify Inhibitors of Platelet Dense Granule Release. [Related pubchem assays: 1663 (Primary HTS), 1678 (Summary of Project)]; format: functional
[13] = target: 26S proteasome non-ATPase regulatory subunit 14 (Homo sapiens, UniProt O00487); test: inhibition of proteasome subunit RPN11 – biochemical, fluorescence polarization, uHTS hits, confirmation (AID 602368); format: functional
[14] = target: T4, Corticotropin-releasing factor receptor 2/Corticotropin-releasing factor-binding protein (Homo sapiens, UniProt P24387+Q13324); test: activators of CRF receptor 2 with binding protein – uHTS hits, confirmation (AID 602473); format: functional; details: read-out: EC50_Mean
T4 sequence (Q13324 whole entry): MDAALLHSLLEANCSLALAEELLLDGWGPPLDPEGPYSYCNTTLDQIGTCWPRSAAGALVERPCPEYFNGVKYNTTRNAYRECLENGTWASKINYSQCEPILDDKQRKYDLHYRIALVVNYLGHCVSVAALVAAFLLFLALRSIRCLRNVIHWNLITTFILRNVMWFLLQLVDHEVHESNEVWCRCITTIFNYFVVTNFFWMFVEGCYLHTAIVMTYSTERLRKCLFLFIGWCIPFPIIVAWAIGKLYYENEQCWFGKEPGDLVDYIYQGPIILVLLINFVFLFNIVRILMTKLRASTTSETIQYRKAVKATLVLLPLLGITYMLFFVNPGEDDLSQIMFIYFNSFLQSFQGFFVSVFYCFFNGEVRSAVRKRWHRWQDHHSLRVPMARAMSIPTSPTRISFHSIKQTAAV
T4 sequence (P24387 whole entry): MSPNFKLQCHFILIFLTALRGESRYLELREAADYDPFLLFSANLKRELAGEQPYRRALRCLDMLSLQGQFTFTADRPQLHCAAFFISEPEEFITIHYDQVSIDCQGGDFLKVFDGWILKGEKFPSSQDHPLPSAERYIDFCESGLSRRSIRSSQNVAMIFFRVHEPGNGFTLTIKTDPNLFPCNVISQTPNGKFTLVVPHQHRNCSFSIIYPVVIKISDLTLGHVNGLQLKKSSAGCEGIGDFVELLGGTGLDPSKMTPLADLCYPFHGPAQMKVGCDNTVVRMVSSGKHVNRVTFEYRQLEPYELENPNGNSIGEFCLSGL

[15] = target: 72 kDa type IV collagenase (Homo sapiens, UniProt P08253); test: Dose Response validation of uHTS RPN11 inhibitor hits using a MMP-2 Fluorescence assay.; format: functional
Prothrombin = Prothrombin (Bos taurus, UniProt P00735); test: thrombin inhibition, dose response, biochemical, fluorescence polarization, uHTS hits (AID 602369); format: functional
Cytochrome P450 2C19 = Cytochrome P450 2C19 (Homo sapiens, UniProt P33261); test: Cytochrome panel assay with activity outcomes. Panel member name: p450-cyp2c19 Compounds with AC50 equal or less than 10 uM are considered active; format: functional; details: read-out: AC50
Cytochrome P450 1A2 = target: T5, Cytochrome P450 1A2 (Homo sapiens, UniProt P05177);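 note: PubChem cytochrome P450 panel assay, CYP1A2 panel member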
T5 sequence (P05177 whole entry): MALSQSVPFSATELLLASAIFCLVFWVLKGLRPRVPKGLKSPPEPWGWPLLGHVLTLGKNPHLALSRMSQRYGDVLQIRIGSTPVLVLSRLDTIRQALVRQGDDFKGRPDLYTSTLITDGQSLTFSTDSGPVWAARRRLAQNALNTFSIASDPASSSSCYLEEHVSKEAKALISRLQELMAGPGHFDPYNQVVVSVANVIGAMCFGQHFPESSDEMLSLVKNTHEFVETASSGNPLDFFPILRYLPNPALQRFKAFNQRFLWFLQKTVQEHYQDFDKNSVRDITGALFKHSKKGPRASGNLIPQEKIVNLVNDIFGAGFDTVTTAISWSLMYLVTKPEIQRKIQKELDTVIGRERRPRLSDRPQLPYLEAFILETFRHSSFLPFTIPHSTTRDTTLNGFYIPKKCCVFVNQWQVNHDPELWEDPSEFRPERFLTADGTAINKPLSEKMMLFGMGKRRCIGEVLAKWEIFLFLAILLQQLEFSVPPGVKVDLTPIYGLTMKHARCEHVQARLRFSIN

Cytochrome P450 2C9 = Cytochrome P450 2C9 (Homo sapiens, UniProt P11712)
Paired box protein Pax-8 = Paired box protein Pax-8 (Homo sapiens, UniProt Q06710); test: inhibitors of PAX8-driven TPO luciferase reporter, dose response, RMG-I cells, cherry-pick (AID 687027); format: functional, cell-based;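 note: luciferase reporter driven by Pax8 target thyroperoxidase promoter measured by SteadyGlo luminescence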
[16] = cytotoxicity in OVCAR8 ovarian cancer cells, dose response, PAX8 project, cell-based, plate reader, dry powder samples (AID 743197); format: functional; details: OVCAR-8

Cytochrome P450 3A4, sequence (P08684 whole entry): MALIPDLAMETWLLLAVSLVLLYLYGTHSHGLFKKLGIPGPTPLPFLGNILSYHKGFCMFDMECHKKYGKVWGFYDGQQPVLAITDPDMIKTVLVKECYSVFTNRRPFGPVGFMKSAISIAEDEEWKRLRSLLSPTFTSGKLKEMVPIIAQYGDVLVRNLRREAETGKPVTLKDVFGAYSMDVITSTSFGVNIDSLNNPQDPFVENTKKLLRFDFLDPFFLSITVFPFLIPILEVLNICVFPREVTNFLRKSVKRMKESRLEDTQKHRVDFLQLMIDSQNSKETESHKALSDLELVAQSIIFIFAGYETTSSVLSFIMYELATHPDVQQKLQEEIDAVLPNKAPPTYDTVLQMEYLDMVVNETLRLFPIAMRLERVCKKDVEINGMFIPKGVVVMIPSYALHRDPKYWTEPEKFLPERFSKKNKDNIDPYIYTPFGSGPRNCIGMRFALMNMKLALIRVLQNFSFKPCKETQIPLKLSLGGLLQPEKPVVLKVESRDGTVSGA
Paired box protein Pax-8, sequence (Q06710 whole entry): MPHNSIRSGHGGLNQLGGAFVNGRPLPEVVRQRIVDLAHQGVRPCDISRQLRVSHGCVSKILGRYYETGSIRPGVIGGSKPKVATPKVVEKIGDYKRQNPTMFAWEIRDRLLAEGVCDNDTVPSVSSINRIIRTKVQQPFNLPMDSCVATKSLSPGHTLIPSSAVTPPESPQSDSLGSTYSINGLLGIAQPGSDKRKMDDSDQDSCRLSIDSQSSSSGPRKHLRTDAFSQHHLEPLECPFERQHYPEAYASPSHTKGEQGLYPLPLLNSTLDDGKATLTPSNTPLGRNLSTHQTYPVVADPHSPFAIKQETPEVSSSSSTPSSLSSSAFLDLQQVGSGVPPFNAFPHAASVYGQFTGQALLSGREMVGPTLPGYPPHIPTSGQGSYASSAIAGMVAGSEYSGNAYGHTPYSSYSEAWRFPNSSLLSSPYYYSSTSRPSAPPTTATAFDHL
Estrogen receptor beta, sequence (Q92731 whole entry): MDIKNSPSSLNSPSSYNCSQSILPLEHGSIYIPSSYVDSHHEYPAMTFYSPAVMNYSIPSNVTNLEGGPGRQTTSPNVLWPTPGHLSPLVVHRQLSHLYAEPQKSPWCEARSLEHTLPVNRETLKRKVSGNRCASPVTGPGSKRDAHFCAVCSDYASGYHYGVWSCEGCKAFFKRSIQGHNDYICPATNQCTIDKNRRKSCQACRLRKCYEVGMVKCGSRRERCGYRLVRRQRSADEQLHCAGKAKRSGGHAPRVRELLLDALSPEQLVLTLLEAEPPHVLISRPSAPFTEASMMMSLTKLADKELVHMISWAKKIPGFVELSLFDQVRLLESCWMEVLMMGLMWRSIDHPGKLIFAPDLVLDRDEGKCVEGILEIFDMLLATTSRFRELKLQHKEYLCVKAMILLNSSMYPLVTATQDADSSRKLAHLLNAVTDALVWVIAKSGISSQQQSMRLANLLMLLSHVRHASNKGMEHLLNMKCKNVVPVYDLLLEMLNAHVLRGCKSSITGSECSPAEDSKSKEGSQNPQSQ
T1 sequence (P49327 whole entry, the tested form may be a part): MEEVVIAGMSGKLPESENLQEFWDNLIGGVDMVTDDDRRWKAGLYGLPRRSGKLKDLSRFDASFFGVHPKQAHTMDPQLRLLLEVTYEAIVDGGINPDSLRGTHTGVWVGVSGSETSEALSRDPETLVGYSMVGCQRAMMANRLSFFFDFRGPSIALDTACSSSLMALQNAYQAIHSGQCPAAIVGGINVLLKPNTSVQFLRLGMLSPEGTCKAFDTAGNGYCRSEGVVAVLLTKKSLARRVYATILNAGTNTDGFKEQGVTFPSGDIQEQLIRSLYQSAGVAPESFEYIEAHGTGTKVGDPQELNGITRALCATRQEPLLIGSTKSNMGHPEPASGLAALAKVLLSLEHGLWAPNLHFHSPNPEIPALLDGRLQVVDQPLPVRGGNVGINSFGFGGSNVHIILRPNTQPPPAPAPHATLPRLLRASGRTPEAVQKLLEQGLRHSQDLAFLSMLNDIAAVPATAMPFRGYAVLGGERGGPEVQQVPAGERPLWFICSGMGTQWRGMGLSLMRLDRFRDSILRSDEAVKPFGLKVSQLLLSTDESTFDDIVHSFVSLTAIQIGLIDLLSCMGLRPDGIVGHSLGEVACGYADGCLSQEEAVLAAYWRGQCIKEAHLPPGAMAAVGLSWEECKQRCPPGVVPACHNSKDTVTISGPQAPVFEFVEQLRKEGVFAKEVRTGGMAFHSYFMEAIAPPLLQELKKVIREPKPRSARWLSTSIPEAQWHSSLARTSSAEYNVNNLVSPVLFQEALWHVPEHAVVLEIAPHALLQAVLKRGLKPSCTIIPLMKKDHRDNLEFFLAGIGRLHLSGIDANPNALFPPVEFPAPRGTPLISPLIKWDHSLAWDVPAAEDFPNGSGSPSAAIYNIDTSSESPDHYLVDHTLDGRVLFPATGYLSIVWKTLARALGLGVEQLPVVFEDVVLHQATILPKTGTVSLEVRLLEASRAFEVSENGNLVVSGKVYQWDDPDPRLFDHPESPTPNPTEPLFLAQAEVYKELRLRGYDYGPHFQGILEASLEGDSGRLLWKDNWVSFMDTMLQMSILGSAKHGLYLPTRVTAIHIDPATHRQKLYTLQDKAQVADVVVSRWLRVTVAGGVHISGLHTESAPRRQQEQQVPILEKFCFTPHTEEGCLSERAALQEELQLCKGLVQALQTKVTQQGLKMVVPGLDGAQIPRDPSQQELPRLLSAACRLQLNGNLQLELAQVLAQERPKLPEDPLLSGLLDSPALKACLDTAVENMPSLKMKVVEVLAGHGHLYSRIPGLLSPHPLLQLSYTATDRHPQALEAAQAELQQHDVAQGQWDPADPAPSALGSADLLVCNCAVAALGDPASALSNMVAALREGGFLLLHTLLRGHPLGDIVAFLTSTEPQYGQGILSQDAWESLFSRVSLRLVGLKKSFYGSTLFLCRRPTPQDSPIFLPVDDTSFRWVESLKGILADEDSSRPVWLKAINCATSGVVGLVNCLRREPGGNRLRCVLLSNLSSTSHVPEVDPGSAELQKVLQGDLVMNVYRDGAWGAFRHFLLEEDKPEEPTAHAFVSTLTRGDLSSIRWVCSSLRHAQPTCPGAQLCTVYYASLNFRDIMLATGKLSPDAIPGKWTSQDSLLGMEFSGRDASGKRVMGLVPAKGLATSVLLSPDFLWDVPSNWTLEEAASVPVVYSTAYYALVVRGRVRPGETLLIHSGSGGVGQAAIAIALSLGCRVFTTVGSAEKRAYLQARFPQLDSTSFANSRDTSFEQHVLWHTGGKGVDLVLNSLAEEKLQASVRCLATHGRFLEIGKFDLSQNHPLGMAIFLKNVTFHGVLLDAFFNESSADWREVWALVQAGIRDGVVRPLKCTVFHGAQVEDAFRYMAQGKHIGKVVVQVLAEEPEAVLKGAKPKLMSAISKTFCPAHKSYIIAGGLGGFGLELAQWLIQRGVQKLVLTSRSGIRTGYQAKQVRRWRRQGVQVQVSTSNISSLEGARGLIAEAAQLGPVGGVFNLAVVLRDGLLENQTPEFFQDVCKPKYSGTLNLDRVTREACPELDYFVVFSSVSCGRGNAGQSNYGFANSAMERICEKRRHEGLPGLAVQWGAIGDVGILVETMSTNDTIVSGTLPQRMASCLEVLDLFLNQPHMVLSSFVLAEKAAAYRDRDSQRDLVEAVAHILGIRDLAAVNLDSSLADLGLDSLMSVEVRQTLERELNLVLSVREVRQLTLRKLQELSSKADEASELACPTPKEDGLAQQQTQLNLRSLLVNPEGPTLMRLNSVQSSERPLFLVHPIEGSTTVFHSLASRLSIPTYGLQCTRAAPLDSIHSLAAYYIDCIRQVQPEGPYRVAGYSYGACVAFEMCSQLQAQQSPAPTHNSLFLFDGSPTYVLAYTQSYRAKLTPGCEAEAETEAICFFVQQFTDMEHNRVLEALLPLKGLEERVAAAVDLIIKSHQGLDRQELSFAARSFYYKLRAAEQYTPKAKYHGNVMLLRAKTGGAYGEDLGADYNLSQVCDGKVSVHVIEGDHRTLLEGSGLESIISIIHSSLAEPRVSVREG
72 kDa type IV collagenase, sequence (P08253 whole entry): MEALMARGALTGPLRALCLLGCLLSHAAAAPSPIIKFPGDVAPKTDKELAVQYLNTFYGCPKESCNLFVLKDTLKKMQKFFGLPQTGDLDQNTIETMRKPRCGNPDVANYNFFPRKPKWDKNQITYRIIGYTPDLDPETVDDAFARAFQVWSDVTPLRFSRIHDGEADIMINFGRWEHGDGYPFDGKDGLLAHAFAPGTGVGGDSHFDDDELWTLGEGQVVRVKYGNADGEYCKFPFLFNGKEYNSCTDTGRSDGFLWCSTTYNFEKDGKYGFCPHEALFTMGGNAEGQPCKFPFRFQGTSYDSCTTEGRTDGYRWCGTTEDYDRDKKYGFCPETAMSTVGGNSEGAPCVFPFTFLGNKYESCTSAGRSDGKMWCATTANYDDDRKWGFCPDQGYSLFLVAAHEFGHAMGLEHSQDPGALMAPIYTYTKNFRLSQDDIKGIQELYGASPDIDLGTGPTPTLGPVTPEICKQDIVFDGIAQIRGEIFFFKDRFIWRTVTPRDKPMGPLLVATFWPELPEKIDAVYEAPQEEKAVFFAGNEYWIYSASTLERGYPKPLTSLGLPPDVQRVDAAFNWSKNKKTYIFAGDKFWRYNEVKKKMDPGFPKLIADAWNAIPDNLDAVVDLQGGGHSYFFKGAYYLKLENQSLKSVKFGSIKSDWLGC
26S proteasome non-ATPase regulatory subunit 14, sequence (O00487 whole entry): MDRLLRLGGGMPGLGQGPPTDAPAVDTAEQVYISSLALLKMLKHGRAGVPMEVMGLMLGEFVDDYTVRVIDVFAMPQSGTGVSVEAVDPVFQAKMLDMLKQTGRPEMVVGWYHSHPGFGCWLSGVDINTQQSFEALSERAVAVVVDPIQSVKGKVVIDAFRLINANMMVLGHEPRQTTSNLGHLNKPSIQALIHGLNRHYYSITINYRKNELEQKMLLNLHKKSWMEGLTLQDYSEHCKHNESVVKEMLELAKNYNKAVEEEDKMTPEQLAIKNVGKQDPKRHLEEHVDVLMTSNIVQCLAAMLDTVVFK

## O=C(c1ccco1)N1CCC2(CCN(Cc3ccccc3)CC2)CC1
Cytochrome P450 3A4
  AC50: inconclusive

## CCOc1ccccc1C(=O)N1CCN=C1SC
Estrogen receptor beta
  IC50: > 50 µM (not active)

## COc1ccccc1NS(=O)(=O)c1cc(NC(=O)C2CCC2)ccc1N1CCCCC1
[1]
  EC50: 2.44 µM (active)
[2]
  EC50: > 30 µM (not active)
[3]
  IC50: 46.8 µM (active)

## O=C(O)CCCNc1c(C(=O)Nc2ccc(Cl)cc2)cc([N+](=O)[O-])cc1[N+](=O)[O-]
Fatty acid synthase [4]
  IC50: 5.31 µM (active)
Fatty acid synthase [5]
  IC50: 4.79 µM (active)

## C=CCn1c(-c2cc(OC)c(OC)c(OC)c2)n[nH]c1=S
[6]
  IC50: > 64 µM (inactive)

## O=C(COC(=O)c1ccc([N+](=O)[O-])s1)Nc1ccc(Cl)cn1
cells
  IC50: 8.49 µM (active)
H9c2
  IC50: 22.2 µM (active)

## CCOC(=O)CNC(=O)C(Cc1ccccc1)NS(=O)(=O)c1ccc2c(c1)CCC(=O)N2 (centres undefined)
Estrogen receptor beta
  IC50: > 50 µM (not active)

## COCCNC(=O)CCCn1c(=O)c2ccccc2n(Cc2cccc([N+](=O)[O-])c2)c1=O
Fatty acid synthase [4]
  IC50: 11.6 µM (active)
Fatty acid synthase [5]
  IC50: 15.8 µM (active)

## CCN1C2=C(C(=O)CCC2)C(c2ccc(O)c(Br)c2)C2=C1CCCC2=O
Estrogen receptor beta
  IC50: > 50 µM (not active)

## O=C(Nc1nc(-c2cc(Cl)sc2Cl)cs1)c1ccc(Br)s1
[7]
  EC50: 17.1 µM (active)
[8]
  EC50: 20.2 µM (active)

## O=C(NCCCCc1ccccc1)C1CC(c2ccc([N+](=O)[O-])cc2)=NO1 (centres undefined)
Fatty acid synthase [4]
  IC50: 13.6 µM (active)
Fatty acid synthase [5]
  IC50: 14.1 µM (active)

## O=C(c1ccco1)N1CCC2(CCN(Cc3nccs3)CC2)CC1
Cytochrome P450 3A4
  AC50: inconclusive

## Cc1ccc(-c2nc3cc(C(N)=O)ccc3c(O)c2O)cc1
[9]
  EC50: 7.27 µM (active)
[10]
  EC50: 8.44 µM (inconclusive)
H9c2
  IC50: 11.3 µM (active)

## COC(=O)C1(C(F)(F)F)N=C2Sc3ccccc3N2C(N2CCOCC2)=N1 (centres undefined)
[11]
  EC50: > 112 µM (not active)
[12]
  EC50: > 112 µM (not active)
[7]
  EC50: 23.9 µM (active)
[8]
  EC50: 21.7 µM (active)

## Nc1ccc(/C=C/C(=O)c2ccco2)cc1
[13]
  IC50: 18 µM (active)
[14]
  EC50: 7.4 µM (active)
[15]
  IC50: > 100 µM (inactive)
Prothrombin
  IC50: 27.5 µM (active)

## Cc1ccc(C(=O)ON=C2CCN(S(=O)(=O)c3ccccc3)CC2)cc1
Cytochrome P450 2C19
  AC50: 5.01 µM (inconclusive)
Cytochrome P450 1A2
  AC50: 28.2 µM (inconclusive)
Cytochrome P450 3A4
  AC50: inconclusive

## Cc1oc(-c2ccc(Cl)cc2)nc1CN1CCC(C(=O)N2CCc3ccccc3C2)CC1
[7]
  EC50: 16.5 µM (active)
[8]
  EC50: 14.7 µM (active)

## Oc1nc(CSc2nnc(-c3cccnc3)n2C2CCCCC2)nc2ccccc12
H9c2
  IC50: 22.1 µM (active)

## CC(C)(C)c1ccc(C(=O)NC(Cc2ccccc2)C(=O)O)cc1 (centres undefined)
Cytochrome P450 2C19
  AC50: 22.4 µM (inconclusive)
Cytochrome P450 2C9
  AC50: 25.1 µM (inconclusive)
Cytochrome P450 3A4
  AC50: inconclusive

## C[C@H](CO)N1C[C@H](C)[C@@H](CN(C)C(=O)NC2CCCCC2)Oc2c(NC(=O)Nc3ccc4c(c3)OCO4)cccc2C1=O
Fatty acid synthase [4]
  IC50: 1.66 µM (active)
Fatty acid synthase [5]
  IC50: 4.32 µM (active)

## CCOc1ccc(Cl)cc1CNCCNCC(C)O.Cl (centres undefined)
Cytochrome P450 3A4
  AC50: inconclusive

## O=CNc1cc(-c2ccc(C(=O)NC3CC3)cc2)cn2c(-c3ccc(F)c(Cl)c3)cnc12
H9c2
  IC50: > 79 µM (inactive)

## COc1cc(CN2c3ccccc3C(=O)CS2(=O)=O)cc(OC)c1
[13]
  IC50: > 100 µM (inactive)
[15]
  IC50: > 100 µM (inactive)
Prothrombin
  IC50: > 100 µM (inactive)

## O=C(Nc1cccc(F)c1)N1CCCCN2[C@@H](CO)[C@@H](c3ccc(-c4ccncc4)cc3)[C@@H]2C1
Paired box protein Pax-8
  AC50: 32.2 µM (active)
[16]
  AC50: > 70 µM (inactive)

## CCCC#Cc1ccc([C@H]2[C@H]3CN(S(=O)(=O)Cc4ccccc4)CCCCN3[C@H]2CO)cc1
Paired box protein Pax-8
  AC50: 10.9 µM (active)
[16]
  AC50: 60.2 µM (active)

## CN1c2ccc(-c3ccccc3)cc2[C@@H]2[C@@H](CCN2C(=O)NC2CCCCC2)[C@@H]1CO
Paired box protein Pax-8
  AC50: 11.1 µM (active)
[16]
  AC50: 49.6 µM (active)

## O=S1(=O)CC/C(=N/Nc2ccc(C(F)(F)F)cn2)c2cc(F)ccc21
[6]
  IC50: 50 µM (inactive)

## O=C(O)CC(O)C(=O)O (centres undefined) [MALIC ACID]
Cytochrome P450 3A4
  AC50: inconclusive
